Test results published in US11896603B2, “Oligosaccharide as therapeutic agent for alcohol associated liver disease” (The Regents of the University of California, priority 2020, dated 2024).

How the values were obtained:
[1] = system: E. faecalis; assay: Fecal E. faecalis and cytolysin by qPCR in chronic-binge ethanol diet-fed mice; assay type: in vivo, mouse; conditions: Fut2^−/− mice
Description: In the 2′-fucosyllactose (2′-FL; a gift from Jennewein Biotechnologie GmbH, Germany) supplementation experiments we used a chronic-binge ethanol diet (NIAAA model). Fut2^−/− mice (10-11 weeks, male and female) were fed with Lieber-DeCarli diet with caloric intake from ethanol 0% on days 1-5 and 36% of total calories from day 6 to day 16. At day 16 in the early morning, mice were gavaged with a single dose of ethanol (5 g/kg body weight) and harvested 9 hours later. In the 2′-FL treated groups 2′-FL was added in the ethanol diet at a final concentration of 2 mg/mL and given continuously during the study period.
Reverse transcription and real-time quantitative PCR. For reverse transcription qPCR, RNA was extracted from mouse liver, and cDNAs were generated as described. DNA from mouse feces was extracted using QIAamp Fast DNA Stool kit (Qiagen, 51604). Quantitative PCR was performed with iTaq universal SYBR Green Supermix (Bio-Rad, 1725124) using a StepOnePlus thermocycler real-time PCR system. Primer sequences for mouse genes were obtained from the NIH qPrimerDepot. The values of mouse genes were normalized to 18S, while bacterial genes were normalized to 16S.

[2] = system: Fut2^−/− mice; assay: 2′-FL supplementation in chronic-binge ethanol diet (NIAAA model), ethanol-induced liver disease; assay type: in vivo, mouse
Description: In the 2′-fucosyllactose (2′-FL; a gift from Jennewein Biotechnologie GmbH, Germany) supplementation experiments we used a chronic-binge ethanol diet (NIAAA model). Fut2^−/− mice (10-11 weeks, male and female) were fed with Lieber-DeCarli diet with caloric intake from ethanol 0% on days 1-5 and 36% of total calories from day 6 to day 16. At day 16 in the early morning, mice were gavaged with a single dose of ethanol (5 g/kg body weight) and harvested 9 hours later. In the 2′-FL treated groups 2′-FL was added in the ethanol diet at a final concentration of 2 mg/mL and given continuously during the study period. Formalin-fixed and paraffin-embedded mouse livers were stained with hematoxylin-eosin (Leica Biosystems Inc.) using standard staining protocols. Frozen liver sections were stained with Oil Red O (Sigma-Aldrich, 00625). Biochemical assays. Levels of plasma alanine aminotransferase (ALT) were measured using infinity ALT kit (Thermo Scientific, TR71121). Triglyceride levels were measured using the Triglyceride Liquid Reagents Kit (Pointe Scientific, 51604). Reverse transcription and real-time quantitative PCR. For reverse transcription qPCR, RNA was extracted from mouse liver, and cDNAs were generated as described. DNA from mouse feces was extracted using QIAamp Fast DNA Stool kit (Qiagen, 51604). Quantitative PCR was performed with iTaq universal SYBR Green Supermix (Bio-Rad, 1725124) using a StepOnePlus thermocycler real-time PCR system. Primer sequences for mouse genes were obtained from the NIH qPrimerDepot. The values of mouse genes were normalized to 18S, while bacterial genes were normalized to 16S.

[3] = system: cytolysin positive strain of E. faecalis; assay: Enterococcus faecalis cultures, growth by optical density at 600 nm; assay type: cell-based; conditions: BHI media with 0, 0.25, 0.5, 1, 2 or 20 mg/mL of 2′-FL, 6 h, sampling every 30 min (FIG. 5G)
Description: Enterococcus faecalis cultures. A cytolysin positive strain of E. faecalis, which was isolated from feces of an ethanol-fed Atp4a^s1/s1 mouse, was cultured in BHI media with 0, 0.25, 0.5, 1, 2 or 20 mg/mL of 2′-FL in triplicate for each concentration. Sampling was taken at 30 min intervals during the course of 6 h. Cell growth was determined by measuring the optical density at 600 nm for each time-point.

CC1O[C@@H](OC2[C@H](O[C@@H]3C(CO)OC(O)C(O)[C@H]3O)OC(CO)[C@H](O)[C@@H]2O)[C@@H](O)C(O)[C@@H]1O (stereo partly shown) [2′-FL, 2′-fucosyllactose]
Intestinal amount of E. faecalis (fecal E. faecalis, qPCR) ([1]; chronic-binge ethanol diet with or without 2′-FL for 2 weeks (FIG. 5E)): decreased | Fecal cytolysin (qPCR) ([1]; chronic-binge ethanol diet with or without 2′-FL for 2 weeks (FIG. 5F)): decreased | Metabolism of ethanol (plasma ethanol, hepatic Adh1 mRNA, hepatic Cyp2e1 mRNA) ([2]; 2′-FL 2 mg/mL in diet for 2 weeks (FIG. 4G-4I)): without affecting | Plasma alanine aminotransferase (ALT) ([2]; 2′-FL 2 mg/mL in diet for 2 weeks, compared with ethanol diet alone (FIG. 4A)): lower | Hepatic triglyceride ([2]; 2′-FL 2 mg/mL in diet for 2 weeks, compared with ethanol diet alone (FIG. 4B)): lower | Liver histopathology (H&E-stained liver tissue) ([2]; 2′-FL 2 mg/mL in diet for 2 weeks, compared with ethanol diet alone (FIG. 4C)): improvement | Hepatic Cxcl1 mRNA level ([2]; 2′-FL 2 mg/mL in diet for 2 weeks, compared with ethanol diet alone (FIG. 4D)): decreased | Hepatic Cxcl2 mRNA level ([2]; 2′-FL 2 mg/mL in diet for 2 weeks, compared with ethanol diet alone (FIG. 4E)): decreased | Oil Red O staining of liver tissue ([2]; 2′-FL 2 mg/mL in diet for 2 weeks, compared with ethanol diet alone (FIG. 4F)): improvement | E. faecalis growth (OD600) [3]: not affected
